Laboratory results: patent US10888864B2, “Electrochemical metabolic activity detecting device” (The Governing Council of the University of Toronto, priority 2014, dated 2021)
Converted amounts (≈) assume the structure as drawn.

Tests used:
[1] = tested on: E. coli; experiment: standard microdilution assay with a 24 hour incubation; format: cell-based, Escherichia coli; conditions: absorbance at 600 nm, FIG. 5A
Protocol: (§1) An antibiotic susceptibility microdilution assay was also performed using the example device. […] After 24 hours, the absorbance at 600 nm was measured.
(§2) As this strain produces a beta lactamase, resistance to ampicillin, a beta-lactam antibiotic is expected.

[2] = tested on: K. pneumoniae; experiment: on-chip electrochemical (resazurin) antibiotic susceptibility assay in undiluted urine; format: cell-based, Klebsiella pneumoniae; conditions: K. pneumoniae 100 cfu/μL in undiluted urine, 1 hour incubation at 37° C., FIG. 5D
Protocol: (§3) The performance of the example device for electrochemical detection in urine was investigated. Human urine (BioreclamationlVT) was centrifuged at 5000 g for 5 min to remove large particulates. E. coli and K. pneumoniae were diluted to 100 cfu/μL and spiked in the urine. Samples (200 μL) were introduced at 20 μL/min. […] Air was flushed through the device to form the wells followed by FC-40 (200 μL) (Sigma Aldrich, St. Louis, Mo.). Thus the total volume of all solutions introduced is 600 μL which requires 30 min to process at 20 μL/min. The device was incubated in a water bath at 37° C. for 1 hour. 10 minutes were required to scan the leads. Thus the total time for the assay from sample introduction to readout was 1 hour and 40 minutes.
(§4) Other studies were carried out to assess the suitability of the example device to rapidly determine the antibiotic resistance profile of bacteria in undiluted urine.
(§5) E. coli (UPEC) and K. pneumoniae present at 100 cfu/μL in undiluted urine were introduced into the example device. After capture, a culture medium, resazurin, and either ampicillin or ciprofloxacin were introduced. FIGS. 5C and 5D show the electrochemical signal obtained as a function of antibiotic concentration after a 1 hour incubation at 37° C.
as §2

[3] = tested on: E. coli (UPEC); experiment: as above; format: cell-based, Escherichia coli
Protocol: as §3, §4, §5
As this strain produces a beta lactamase, resistance to ampicillin, a beta-lactam antibiotic is expected. […]

[4] = tested on: K. pneumoniae; experiment: time required for antibiotics to hinder metabolic activity (resazurin fluorescence); format: cell-based, Klebsiella pneumoniae; conditions: K. pneumoniae 1×10^5 cfu/μL, antibiotic 100 μg/mL, LB media, 1 mM resazurin, 37° C., FIG. 16
Protocol: In order to choose a suitable incubation period for the susceptibility test, the time required for the antibiotics to begin inhibiting bacterial metabolic activity was investigated. […] The increase in fluorescence induced by the conversion of resazurin by metabolically active bacteria was recorded.

[5] = tested on: K. pneumoniae; experiment: standard microdilution assay with a 24 hour incubation; format: cell-based, Klebsiella pneumoniae; conditions: FIG. 5B; for MIC90: Klebsiella pneumoniae, 24 hour incubation
Protocol: as §1, §2

[6] = tested on: E. coli; experiment: on-chip electrochemical antibiotic susceptibility assay in unpurified urine; format: cell-based, Escherichia coli; conditions: E. coli 100 cfu/μL in undiluted unpurified urine, 10 μm pre-filter, 37° C. for 1 hour, FIG. 5E
Protocol: The performance of the example device was also investigated for electrochemical detection in unpurified urine. E. coli were diluted to 100 cfu/μL and spiked in the unpurified human urine (BioreclamationlVT). The spiked urine (200 μL) was passed through a 10 μm filter to remove large particulates and directly introduced at 20 μL/min into the chip. […] Air was flushed through the device to form the wells followed by FC-40 (Sigma Aldrich, St. Louis, Mo.). The device was incubated in a water bath at 37° C.
A series of experiments were also performed to determine the antibiotic susceptibility of bacteria in unpurified urine. […] Currents are normalized to the maximum value. Error bars represent standard error.
E. coli were spiked directly into undiluted and unpurified urine at 100 cfu/μL. The sample was passed through a 10 μm filter that removed large particulates while allowing bacteria to pass. FIG. 18 illustrates the effect of pre-filter size on recovery of bacteria spiked in undiluted urine. […] No appreciable signal change was found when using a blank control sample of unpurified urine (see FIG. 4, discussed above).

Compound | minimum antibiotic concentration that inhibits 90% of bacterial growth (MIC90) [1] | electrochemical signal with increasing antibiotic concentration / susceptibility call [2] | effect on metabolism of E. coli (electrochemical scan) ([3]; 1 μg/mL antibiotic, E. coli in urine at 100 CFU/μL, 1 mM resazurin, 60 min at 37° C., FIG. 19B) | fluorescence signal (resazurin conversion) in presence of antibiotic [4] | susceptibility call by standard microdilution assay [5] | MIC90 [5] | antibiotic concentration at which the bacteria are susceptible (electrochemical signal) ([3]; E. coli (UPEC) 100 cfu/μL in undiluted urine, 1 hour incubation at 37° C., FIG. 5C) | antibiotic concentration at which E. coli are susceptible (electrochemical signal) [6]
CC1(C)S[C@@H]2[C@H](NC(=O)[C@H](N)c3ccccc3)C(=O)N2[C@H]1C(=O)O [ampicillin] | 16 µg/mL | approximately constant | insufficient to inhibit the metabolism | fluorescence increases | resistant | > 100 µg/mL | – | –
O=C(O)c1cn(C2CC2)c2cc(N3CCNCC3)c(F)cc2c1=O [ciprofloxacin] | less than 0.1 μg/mL | susceptible | – | – | susceptible | 2 µg/mL (≈ 6.04 µM) | above 1 μg/mL | ≥ 1 µg/mL
